Measured values published in patent publication US5369016A, “Peptide amidase and the use thereof” (Forschungszentrum Juelich GmbH, priority 1990, dated 1994).
Square brackets hold non-standard residues; d marks the D form. Peptide text beside a SMILES is read from it.

Key:
[1] = tested on: peptide amidase purified from orange flavedo; assay: Cleavage of peptide amides with free N termini and of side chain amides; type: biochemical; conditions: amides of amino acid side chains (Asn; Gln); amino acid analyzer; 10000 µM
Experimental: Enzyme activity measured for the deamidation of dipeptide amides with free N termini (e.g. H-Tyr-Arg-NH2) was considerably higher than for peptide amides with an aromatic protective group, such as Z- or Bz-. Activity levels were up to 100 times higher than those measured with protected peptide amides.
Amides of amino acid side chains (Asn; Gln) Analysis
Eluent (HPLC): TBA/acetonitrile 95/5 or 96/4(*)
Reaction conditions: 10 mM substrate; 50 μg/ml peptide amidase; 50 mM
tris/HCl; pH 7.0; temperature 30° C.

peptide amidase [2] = assay: Effect of organic solvents on enzyme stability; type: biochemical, orange; conditions: 27.8% solvent, 30° C.; acetone, acetonitrile, DMF, ethanol compared
Experimental: Ten identical mixtures of the following composition:
50 μl of enzyme solution (40 μg of protein/mixture)
were incubated at 30° C. At various times, the reaction was initiated by the addition of substrate (Z-Gly-Tyr-NH2 in 100 μl of buffer/solvent 1:1, corresponding to 10 mM/mixture) and the activity was measured.

peptide amidase [3] = assay: Continuous deamidation of H-Tyr-Arg-NH2 in an enzyme membrane reactor (EMR); type: biochemical, orange; conditions: 20 mM substrate, residence time 30 minute, enzyme 0.15 mg/ml
Experimental: A continuous process for deamidation of H-Tyr-Arg-NH2 was carried out in an EMR. The conditions for operating the EMR (corresponding to a continuously operated stirred vessel reactor) permitted a more economic utilization of the enzyme because the enzyme was removed by ultrafiltration before the product was purified. The process was carried out under the following conditions: […]

peptide amidase [4] = assay: Deamidation of tripeptides containing D-amino acids (stereospecificity); type: biochemical, orange; conditions: 12 h
Experimental: Column: RP 18, 0.1 ml/min
Eluent: Solution of TBA (tetrabutylammonium hydrogen sulfate) and […]

[5] = Comparison of the activity of peptide amidase and CPD-Y (pH-stat); type: biochemical; conditions: for Amino-acid amidase activity (percent) / Amino-acid amidase activity (yes/no): strength varies depending on the amide of the amino acid
Experimental: The enzyme has neither peptidase activity nor amino acid amidase activity, as is evident from the results presented in Table 1 comparing the activities of a purified peptide amidase to carboxypeptidase Y in both its native and modified form.
Comparison of the activity of peptide amidase and CPD-Y;
Conditions for the determination of peptide amidase activity:
30 mM of different substrates, pH 9, 22° C., pH-stat
For the purposes of this disclosure, specific activity is defined as follows: 1 U/mg of enzyme can convert 1 μmol of substrate per minute.

Molecule: H--Ala--Gln
- Conversion [1]: 0%

Molecule: CN(C)C=O [DMF, dimethylformamide]
- decrease in enzyme activity on incubation with solvent (in words) (peptide amidase [2]): smallest decrease in enzyme activity

Molecule: H--Ala--Asn
- Conversion [1]: 0%

Molecule: N=C(N)NCCC[C@H](NC(=O)[C@@H](N)Cc1ccc(O)cc1)C(N)=O [Tyr--Arg--NH2, H-Tyr-Arg-NH2]
- Mean conversion (peptide amidase [3]): 92%

Molecule: NCC(=O)N[C@@H](Cc1ccccc1)C(=O)N[C@H](Cc1ccccc1)C(N)=O [H--Gly--Phe--D-Phe--NH2] (H-Gly-Phe-[dF]-NH2)
- Conversion (peptide amidase [4]): 0 %/12 hours

Molecule: H--Leu--Arg--Asn
- Conversion [1]: 0%

Molecule: C[C@@H](NC(=O)[C@@H]1CCCN1C(=O)[C@@H](N)CCCNC(=N)N)C(N)=O [H--Arg--Pro--D-Ala--NH2] (H-Arg-Pro-[dA]-NH2)
- Conversion (peptide amidase [4]): 0 %/12 hours

Molecule: NCC(=O)N[C@H](Cc1ccccc1)C(=O)N[C@@H](Cc1ccc(O)cc1)C(N)=O [H--Gly--D-Phe--Tyr--NH2] (H-Gly-[dF]-Tyr-NH2)
- Conversion (peptide amidase [4]): 100 %/12 hours

B1: Carboxypeptidase Y [CPD-Y (native)] (protein, UniProt P00729 112-532, looked up)
Carboxypeptidase Y: KIKDPKILGIDPNVTQYTGYLDVEDEDKHFFFWTFESRNDPAKDPVILWLNGGPGCSSLTGLFFELGPSSIGPDLKPIGNPYSWNSNATVIFLDQPVNVGFSYSGSSGVSNTVAAGKDVYNFLELFFDQFPEYVNKGQDFHIAGESYAGHYIPVFASEILSHKDRNFNLTSVLIGNGLTDPLTQYNYYEPMACGEGGEPSVLPSEECSAMEDSLERCLGLIESCYDSQSVWSCVPATIYCNNAQLAPYQRTGRNVYDIRKDCEGGNLCYPTLQDIDDYLNQDYVKEAVGAEVDHYESCNFDINRNFLFAGDWMKPYHTAVTDLLNQDLPILVYAGDKDFICNWLGNKAWTDVLPWKYDEEFASQKVRNWTASITDEVAGEVKSYKHFTYLRVFNGGHMVPFDVPENALSMVNEWIHGGFSL
- Peptidase activity [5]: yes
- Specific activity ([5]; 30 mM of different substrates, pH 9, 22° C., pH-stat): 0.0082 U/mg protein
- Amino-acid amidase activity (percent) [5]: 0-92%
- Amino-acid amidase activity (yes/no) [5]: yes

B2: Carboxypeptidase Y [CPD-Y (modified)] (protein, UniProt P00729 112-532, looked up)
Carboxypeptidase Y: B1 Carboxypeptidase Y
modifications: chemically modified
notes: carboxypeptidase Y in a chemically modified form
- Amino-acid amidase activity (percent) [5]: 0-77%
- Amino-acid amidase activity (yes/no) [5]: yes
